Columns and labels:
[1] = molecular target: T1, ATAD2A (Homo sapiens, UniProt Q6PL18); test: Bromodomain assay % Ctrl determination ATAD2A; conditions: lower numbers indicate a stronger binding
T1 construct: T7 phage strains displaying bromodomains were grown in parallel; made in house; host or cells: T7 phage grown in an E. coli host derived from the BL21 strain
Procedure: (§1) Compounds that bind the bromodomain prevent its binding to the immobilized ligand thus reducing the amount of protein captured. […] Hits are identified by measuring the amount of bromodomain captured in test versus control samples. Bromodomain assays for % Ctrl determination: T7 phage strains displaying bromodomains were grown in parallel in 24-well blocks in an E. coli host derived from the BL21 strain. E. coli were grown to log-phase and infected with T7 phage from a frozen stock (multiplicity of infection=0.4) and incubated with shaking at 32° C. until lysis (90-150 minutes). The lysates were centrifuged (5,000×g) and filtered (0.2 μm) to remove cell debris. […] The liganded beads were blocked with excess biotin and washed with blocking buffer (SeaBlock (Pierce), 1% BSA, 0.05% Tween 20, 1 mM DTT) to remove unbound ligand and to reduce non-specific phage binding. […] Test compounds were prepared as 1000× stocks in 100% DMSO and subsequently diluted 1:25 in monoethylene glycol (MEG). The compounds were then diluted directly into the assays such that the final concentrations of DMSO and MEG were 0.1% and 2.4%, respectively. All reactions were performed in polypropylene 384-well plates in a final volume of 0.02 ml. […] The bromodomain concentration in the eluates was measured by qPCR. […]

[2] = molecular target: T2, BAZ2A (Homo sapiens, UniProt Q9UIF9); test: Bromodomain assay % Ctrl determination BAZ2A; conditions: lower numbers indicate a stronger binding
T2 construct: T7 phage strains displaying bromodomains were grown in parallel; made in house; host or cells: T7 phage grown in an E. coli host derived from the BL21 strain
T2 sequence (Q9UIF9 1793-1897 limits assumed): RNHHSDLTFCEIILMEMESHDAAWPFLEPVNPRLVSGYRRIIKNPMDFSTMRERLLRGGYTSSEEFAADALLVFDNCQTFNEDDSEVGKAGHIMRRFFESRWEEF
Procedure: as §1

[3] = molecular target: T3, BRDT(2) (Homo sapiens, UniProt Q58F21); test: Bromodomain assay % Ctrl determination BRDT(2); conditions: lower numbers indicate a stronger binding
T3 construct: T7 phage strains displaying bromodomains were grown; host or cells: T7 phage in E. coli derived from BL21
Procedure: as §1

[4] = molecular target: T4, BRPF1 (Homo sapiens, UniProt P55201); test: Bromodomain assay % Ctrl determination BRPF1; conditions: lower numbers indicate a stronger binding
T4 construct: T7 phage strains displaying bromodomains were grown; host or cells: T7 phage in E. coli derived from BL21
T4 sequence (P55201 628-732 limits assumed): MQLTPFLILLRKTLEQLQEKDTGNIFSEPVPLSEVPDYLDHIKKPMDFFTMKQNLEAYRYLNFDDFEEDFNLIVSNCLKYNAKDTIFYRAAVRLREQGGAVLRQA
Procedure: as §1

[5] = molecular target: T5, BRPF3 (Homo sapiens, UniProt Q9ULD4); test: Bromodomain assay % Ctrl determination BRPF3; conditions: lower numbers indicate a stronger binding
T5 construct: T7 phage strains displaying bromodomains were grown; host or cells: T7 phage in E. coli derived from BL21
T5 sequence (Q9ULD4 589-693 limits assumed): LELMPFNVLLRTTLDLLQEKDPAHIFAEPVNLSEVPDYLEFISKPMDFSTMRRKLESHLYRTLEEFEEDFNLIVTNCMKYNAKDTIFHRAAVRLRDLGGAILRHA
Procedure: as §1

[6] = molecular target: T6, CREBBP (Homo sapiens, UniProt Q92793); test: Bromodomain assay % Ctrl determination CREBBP; conditions: lower numbers indicate a stronger binding
T6 construct: T7 phage strains displaying bromodomains were grown; host or cells: T7 phage in E. coli derived from BL21
T6 sequence (Q92793 1085-1192 limits assumed): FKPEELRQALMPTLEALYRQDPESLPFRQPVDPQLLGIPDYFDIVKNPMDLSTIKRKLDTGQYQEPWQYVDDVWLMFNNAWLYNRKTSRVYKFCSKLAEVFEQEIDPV
Procedure: as §1

[7] = molecular target: T7, EP300 (Homo sapiens, UniProt Q09472); test: Bromodomain assay % Ctrl determination EP300; conditions: lower numbers indicate a stronger binding
T7 construct: T7 phage strains displaying bromodomains were grown; host or cells: T7 phage in E. coli derived from BL21
T7 sequence (Q09472 1049-1156 limits assumed): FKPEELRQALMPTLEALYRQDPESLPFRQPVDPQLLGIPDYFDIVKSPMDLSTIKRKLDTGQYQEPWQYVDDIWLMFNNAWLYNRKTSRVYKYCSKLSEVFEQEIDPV
Procedure: as §1

[8] = molecular target: T8, PBRM1(2) (Homo sapiens, UniProt Q86U86); test: Bromodomain assay % Ctrl determination PBRM1(2); conditions: lower numbers indicate a stronger binding
T8 construct: FALZ, PBRM1-BD2, BPRM1-BDS, TAF1-BD2, TAF1L-BD2; host or cells: T7 phage grown in E. coli host derived from BL21
T8 sequence (Q86U86 177-287 limits assumed): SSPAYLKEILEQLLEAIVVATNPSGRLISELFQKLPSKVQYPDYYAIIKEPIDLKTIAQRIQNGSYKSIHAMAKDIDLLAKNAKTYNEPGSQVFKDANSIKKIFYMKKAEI
Procedure: as §1

[9] = molecular target: T9, TRIM24(PHD, Bromo) (Homo sapiens, UniProt O15164); test: Bromodomain assay % Ctrl determination TRIM24(PHD, Bromo); conditions: lower numbers indicate a stronger binding
T9 construct: T7 phage strains displaying bromodomains were grown in parallel; host or cells: T7 phage grown in E. coli host derived from BL21
T9 sequence (O15164 824-1006 limits assumed): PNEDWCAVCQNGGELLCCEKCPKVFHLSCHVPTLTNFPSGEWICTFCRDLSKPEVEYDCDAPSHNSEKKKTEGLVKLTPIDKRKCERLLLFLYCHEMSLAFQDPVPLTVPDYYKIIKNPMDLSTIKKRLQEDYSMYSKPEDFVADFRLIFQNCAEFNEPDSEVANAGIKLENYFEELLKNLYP
Procedure: as §1

[10] = molecular target: T10, ATAD2B (Homo sapiens, UniProt Q9ULI0); test: BROMOscan Kd determination ATAD2B; assay type: binding
T10 construct: T7 phage strains displaying bromodomains were grown in parallel; made in house; host or cells: T7 phage grown in an E. coli host derived from the BL21 strain
T10 sequence (Q9ULI0 951-1066 limits assumed): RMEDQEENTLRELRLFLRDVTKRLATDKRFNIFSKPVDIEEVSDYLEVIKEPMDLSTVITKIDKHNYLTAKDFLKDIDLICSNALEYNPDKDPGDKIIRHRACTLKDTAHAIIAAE
Procedure: (§2) Bromodomain profiling was carried out on the basis of BROMOscan™. This platform accounted for the indirect determination of the dissociation constants between 19 bromodomains and the compound of formula (13), by binding competition against a reference immobilized ligand. Compounds that bind the bromodomain prevent its binding to the immobilized ligand thus reducing the amount of protein captured. […] Hits are identified by measuring the amount of bromodomain captured in test versus control samples. Bromodomain assays for Kd determination: T7 phage strains displaying bromodomains were grown in parallel in 24-well blocks in an E. coli host derived from the BL21 strain. E. coli were grown to log-phase and infected with T7 phage from a frozen stock (multiplicity of infection=0.4) and incubated with shaking at 32° C. until lysis (90-150 minutes). The lysates were centrifuged (5,000×g) and filtered (0.2 μm) to remove cell debris. […] Kds were determined using an 11-point 3-fold compound dilution series with one DMSO control point. […] The bromodomain concentration in the eluates was measured by qPCR. […] Most Kds were determined using a compound top concentration=10,000 nM. […] Binding Constants (Kds): Binding constants (Kds) were calculated with a standard dose-response curve using the Hill equation: The Hill Slope was set to −1. […]

[11] = molecular target: T11, BRD2(1, 2) (Homo sapiens, UniProt P25440); test: BROMOscan Kd determination BRD2(1, 2); assay type: binding
T11 construct: T7 phage strains displaying bromodomains were grown in parallel; made in house; host or cells: T7 phage grown in an E. coli host derived from the BL21 strain
T11 sequence (P25440 71-455 limits assumed): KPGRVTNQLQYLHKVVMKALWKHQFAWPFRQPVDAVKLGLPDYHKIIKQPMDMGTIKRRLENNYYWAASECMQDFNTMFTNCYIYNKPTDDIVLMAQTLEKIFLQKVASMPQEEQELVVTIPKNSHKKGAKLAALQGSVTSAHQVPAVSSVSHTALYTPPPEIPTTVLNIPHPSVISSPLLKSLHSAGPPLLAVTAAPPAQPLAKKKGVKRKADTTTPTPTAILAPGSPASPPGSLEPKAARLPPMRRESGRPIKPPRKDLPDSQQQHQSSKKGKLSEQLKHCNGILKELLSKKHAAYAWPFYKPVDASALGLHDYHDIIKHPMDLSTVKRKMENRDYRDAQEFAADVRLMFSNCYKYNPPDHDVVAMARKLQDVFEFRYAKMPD
Procedure: as §2

[12] = molecular target: T12, BRD3(1, 2) (Homo sapiens, UniProt Q15059); test: BROMOscan Kd determination BRD3(1, 2); assay type: binding
T12 construct: T7 phage strains displaying bromodomains were grown in parallel; made in house; host or cells: T7 phage grown in an E. coli host derived from the BL21 strain
T12 sequence (Q15059 24-416 limits assumed): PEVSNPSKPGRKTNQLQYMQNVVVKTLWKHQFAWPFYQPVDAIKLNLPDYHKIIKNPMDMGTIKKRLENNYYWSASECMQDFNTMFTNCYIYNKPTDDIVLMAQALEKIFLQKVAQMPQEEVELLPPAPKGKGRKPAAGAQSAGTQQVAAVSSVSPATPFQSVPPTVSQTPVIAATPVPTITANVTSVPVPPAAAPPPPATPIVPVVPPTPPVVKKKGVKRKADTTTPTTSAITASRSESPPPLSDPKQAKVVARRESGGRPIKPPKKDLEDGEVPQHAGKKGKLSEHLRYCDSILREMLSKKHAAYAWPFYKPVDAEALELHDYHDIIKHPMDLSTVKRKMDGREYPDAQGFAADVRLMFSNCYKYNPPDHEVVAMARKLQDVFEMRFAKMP
Procedure: as §2

[13] = molecular target: T13, BRD8(2) (Homo sapiens, UniProt Q9H0E9); test: BROMOscan Kd determination BRD8(2); assay type: binding
T13 construct: T7 phage strains displaying bromodomains were grown; host or cells: T7 phage in E. coli derived from BL21
T13 sequence (Q9H0E9 1099-1207 limits assumed): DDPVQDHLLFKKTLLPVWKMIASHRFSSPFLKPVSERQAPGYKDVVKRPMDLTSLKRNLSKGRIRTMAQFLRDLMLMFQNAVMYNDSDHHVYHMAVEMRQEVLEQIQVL
Procedure: as §2

[14] = molecular target: T14, SMARCA2 (Homo sapiens, UniProt P51531); test: BROMOscan Kd determination SMARCA2; assay type: binding
T14 construct: T7 phage strains displaying bromodomains were grown in parallel; host or cells: T7 phage grown in E. coli host derived from BL21
T14 sequence (P51531 1378-1506 limits assumed): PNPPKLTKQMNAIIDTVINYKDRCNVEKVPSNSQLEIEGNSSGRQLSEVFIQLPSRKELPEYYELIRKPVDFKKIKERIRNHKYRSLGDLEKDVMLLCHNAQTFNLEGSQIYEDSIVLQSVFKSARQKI
Procedure: as §2

[15] = molecular target: T15, WRD9(2) (Homo sapiens, UniProt Q9NSI6); test: BROMOscan Kd determination WRD9(2); assay type: binding
T15 construct: T7 phage strains displaying bromodomains were grown in parallel; host or cells: T7 phage grown in E. coli host derived from BL21
T15 sequence (Q9NSI6 1313-1418 limits assumed): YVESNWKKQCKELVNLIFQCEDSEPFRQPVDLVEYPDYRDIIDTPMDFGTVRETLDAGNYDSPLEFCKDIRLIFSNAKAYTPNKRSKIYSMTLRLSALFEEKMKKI
Procedure: as §2

T1 sequence (Q6PL18 980-1092 limits assumed): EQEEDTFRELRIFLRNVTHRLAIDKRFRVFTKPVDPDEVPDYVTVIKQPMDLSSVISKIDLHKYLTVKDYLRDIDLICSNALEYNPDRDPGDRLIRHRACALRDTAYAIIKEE

Compound	% Ctrl @ 10 000 nM ATAD2A [1]	% Ctrl @ 10 000 nM BAZ2A [2]	% Ctrl @ 10 000 nM BRDT(2) [3]	% Ctrl @ 10 000 nM BRPF1 [4]	% Ctrl @ 10 000 nM BRPF3 [5]	% Ctrl @ 10 000 nM CREBBP [6]	% Ctrl @ 10 000 nM EP300 [7]	% Ctrl @ 10 000 nM PBRM1(2) [8]	% Ctrl @ 10 000 nM TRIM24(PHD, Bromo) [9]	Kd [10]	Kd [11]	Kd [12]	Kd [13]	Kd [14]	Kd [15]
COc1ccc(S(=O)(=O)N2CCOCC2)cc1NC(=O)c1[nH]c(C)c2c1CCCCC2=O [Compound 13, N-(2-methoxy-5-(morpholinosulfonyl)phenyl)-3-methyl-4-oxo-2,4,5,6,7,8-hexahydrocyclohepta[c]pyrrole-1-carboxamide]	94 % Ctrl	24 % Ctrl	0.65 % Ctrl	0.15 % Ctrl	35 % Ctrl	4.7 % Ctrl	1.4 % Ctrl	75 % Ctrl	82 % Ctrl	–	–	–	–	–	–
Cc1[nH]c(-c2cc(N)ccc2Cl)c2c1C(=O)CCCC2 [Compound 23]	–	–	–	–	–	–	–	–	–	> 10 µM	0.084 µM	0.1 µM	> 10 µM	> 10 µM	> 10 µM
